Experiments:
USP1-UAF1 = USP1-UAF1 (Homo sapiens, UniProt O94782); assay: Ubiquitin Rhodamine assay for USP1-UAF1 activity; format: biochemical
Experimental: Certain compounds of the disclosure were assessed for USP1-UAF1 activity in a Ubiquitin Rhodamine assay as described in Example 135.

[1] = tested on: MDA-MB-436 (BRCA1 mutant) cell line; assay: Viability assay in BRCA1 mutant cell line MDA-MB-436; format: cell-based; conditions: Homo sapiens, MDA-MB-436, viability, BRCA1 mutant MDA-MB-436; read-out: MDA-MB-436 rel IC50
Excerpt: (§1) Table 1 also indicates IC50 values in a viability assay for a non-isogenic pair of BRCA1 mutant (column 5—MDA-MB-436) and BRCA1 WT (column 6—HCC1954) cell lines. These values indicate the effect of treatment with compound on cell survival.

[2] = tested on: HCC1954 (BRCA1 WT) cell line; assay: Viability assay in BRCA1 WT cell line HCC1954; format: cell-based; conditions: Homo sapiens, read-out: HCC 1954 IC50 rel IC50
Excerpt: as §1

monoubiquitinated PCNA = assay: AlphaLISA assay measuring monoubiquitinated PCNA in MDA-MB-436; format: cell-based; conditions: Homo sapiens, read-out: Alpha LISA IC50
Excerpt: Table 1 also indicates IC50 values for exemplary compounds in an AlphaLISA assay measuring monoubiquitinated PCNA in a BRCA1 mutant cell line (MDA-MB-436; column 7).

Chain of USP1-UAF1 (O94782 whole entry): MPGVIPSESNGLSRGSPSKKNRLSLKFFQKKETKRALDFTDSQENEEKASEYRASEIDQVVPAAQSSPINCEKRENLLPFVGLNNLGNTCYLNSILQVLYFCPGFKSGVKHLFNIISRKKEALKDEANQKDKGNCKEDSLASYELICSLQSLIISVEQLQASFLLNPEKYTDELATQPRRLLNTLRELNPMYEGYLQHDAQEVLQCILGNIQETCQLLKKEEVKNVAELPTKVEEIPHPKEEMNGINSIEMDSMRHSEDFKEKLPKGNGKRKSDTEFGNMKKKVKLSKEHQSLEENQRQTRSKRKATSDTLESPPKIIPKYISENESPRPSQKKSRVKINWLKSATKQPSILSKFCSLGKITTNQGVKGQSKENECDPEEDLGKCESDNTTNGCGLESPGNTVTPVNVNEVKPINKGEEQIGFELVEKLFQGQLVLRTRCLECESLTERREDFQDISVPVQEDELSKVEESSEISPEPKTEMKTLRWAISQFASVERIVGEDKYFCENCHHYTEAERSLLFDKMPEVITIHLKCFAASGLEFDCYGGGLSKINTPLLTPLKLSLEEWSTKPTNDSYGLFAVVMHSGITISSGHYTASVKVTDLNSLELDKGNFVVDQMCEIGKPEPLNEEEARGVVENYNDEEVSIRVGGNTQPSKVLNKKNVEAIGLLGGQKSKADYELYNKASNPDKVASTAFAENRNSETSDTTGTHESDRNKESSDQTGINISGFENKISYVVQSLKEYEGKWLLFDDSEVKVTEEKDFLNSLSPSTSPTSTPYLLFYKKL
Chain of USP1-UAF1 (Q8TAF3 whole entry partner): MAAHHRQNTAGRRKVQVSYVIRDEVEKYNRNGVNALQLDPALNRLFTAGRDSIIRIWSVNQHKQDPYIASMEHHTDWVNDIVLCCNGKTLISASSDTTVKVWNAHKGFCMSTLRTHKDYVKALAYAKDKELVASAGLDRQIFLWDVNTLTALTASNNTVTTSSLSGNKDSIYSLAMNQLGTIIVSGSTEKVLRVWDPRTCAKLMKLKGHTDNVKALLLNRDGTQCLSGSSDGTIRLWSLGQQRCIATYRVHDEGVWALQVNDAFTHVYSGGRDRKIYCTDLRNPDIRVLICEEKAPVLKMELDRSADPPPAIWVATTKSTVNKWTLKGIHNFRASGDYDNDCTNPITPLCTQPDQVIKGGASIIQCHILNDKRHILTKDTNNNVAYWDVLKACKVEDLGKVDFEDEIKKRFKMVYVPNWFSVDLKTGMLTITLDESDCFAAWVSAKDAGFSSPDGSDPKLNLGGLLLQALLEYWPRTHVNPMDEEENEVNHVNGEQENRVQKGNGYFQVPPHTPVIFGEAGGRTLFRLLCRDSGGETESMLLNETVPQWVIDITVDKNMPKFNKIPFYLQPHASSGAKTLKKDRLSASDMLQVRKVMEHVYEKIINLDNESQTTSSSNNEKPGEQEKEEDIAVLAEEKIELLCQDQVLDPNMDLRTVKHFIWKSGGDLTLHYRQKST

Row | Structure (SMILES) | IC50 (USP1-UAF1) [nM] | IC50 [1] [nM] | IC50 [2] [nM] | IC50 (monoubiquitinated PCNA) [nM]
1 | COc1ncnc(C2CC2(F)F)c1-c1ncc2[nH]nc(Cc3ccc(-c4nc(C(F)(F)F)cn4C)cc3)c2n1 (stereo not shown) [Compound 172, 5-[4-(2,2-difluorocyclopropyl)-6-methoxy-pyrimidin-5-yl]-3-[[4-[1-methyl-4-(trifluoromethyl)imidazol-2-yl]phenyl]methyl]-1H-pyrazolo[4,3-d]pyrimidine] | < 30 | < 100 | ≥ 10000 | < 100
2 | COc1nccc(C2CC2)c1-c1ncc2[nH]nc(Cc3ccc(-c4nc(C(F)(F)F)cn4C)cc3)c2n1 [Compound 205, 5-(4-cyclopropyl-2-methoxy-3-pyridyl)-3-[[4-[1-methyl-4-(trifluoromethyl)imidazol-2-yl]phenyl]methyl]-1H-pyrazolo[4,3-d]pyrimidine] | < 30 | < 100 | ≥ 10000 | < 100
3 | COc1ncnc(C2CC2)c1-c1nc(C)c2[nH]nc(Cc3ccc(-c4nc(C(F)(F)F)cn4C)cc3)c2n1 [Compound 115, 5-(4-cyclopropyl-6-methoxypyrimidin-5-yl)-7-methyl-3-(4-(1-methyl-4-(trifluoromethyl)-1H-imidazol-2-yl)benzyl)-1H-pyrazolo[4,3-d]pyrimidine] | < 30 | < 100 | ≥ 10000 | < 100
4 | CNCc1[nH]c2cnc(-c3cccnc3C3CC3)nc2c1Cc1ccc(-c2nc(C(F)(F)F)cn2C)cc1 [Compound 178, 1-[2-(2-cyclopropyl-3-pyridyl)-7-[[4-[1-methyl-4-(trifluoromethyl)imidazol-2-yl]phenyl]methyl]-5H-pyrrolo[3,2-d]pyrimidin-6-yl]-N-methyl-methanamine] | 30 to 100 | < 100 | 250 to 10000 | < 100
5 | CC(C)c1ccccc1-c1ncc2[nH]cc(Cc3ccc(-c4nc(C(F)(F)F)cn4C)cc3)c2n1 [Compound 10, 2-(2-isopropylphenyl)-7-[[4-[1-methyl-4-(trifluoromethyl)imidazol-2-yl]phenyl]methyl]-5H-pyrrolo[3,2-d]pyrimidine] | < 30 | < 100 | ≥ 10000 | < 100
6 | COCCc1[nH]c2cnc(-c3c(OC)ncnc3C3CC3)nc2c1Cc1ccc(-c2nc(C(F)(F)F)cn2C)cc1 [Compound 195, 2-(4-cyclopropyl-6-methoxy-pyrimidin-5-yl)-6-(2-methoxyethyl)-7-[[4-[-methyl-4-(trifluoromethyl)imidazol-2-yl]phenyl]methyl]-5H-pyrrolo[3,2-d]pyrimidine] | < 30 | < 100 | ≥ 10000 | < 100
7 | COc1ncnc(C2CC2)c1-c1ncc2[nH]nc(Cc3ccc(-c4nc(C#N)cn4C)cc3)c2n1 [Compound 45, 2-[4-[[5-(4-cyclopropyl-6-methoxy-pyrimidin-5-yl)-1H-pyrazolo[4,3-d]pyrimidin-3-yl]methyl]phenyl]-1-methyl-imidazole-4-carbonitrile] | 100 to 10000 | 250 to 10000 | ≥ 10000 | 250 to 10000
8 | CC(C)c1ccccc1-c1cc2c(Nc3ccc(-c4nc(C(F)(F)F)cn4C)cc3)c[nH]c2cn1 [Compound 17] | 100 to 10000 | 250 to 10000 | 250 to 10000 | < 100
9 | COc1ncnc(C2CC2)c1-c1ncc2[nH]cc(C3(c4ccc(-c5nc(C(F)(F)F)cn5C)cc4)CC3)c2n1 [Compound 47, 2-(4-cyclopropyl-6-methoxy-pyrimidin-5-yl)-7-[1-[4-[1-methyl-4-(trifluoromethyl)imidazol-2-yl]phenyl]cyclopropyl]-5H-pyrrolo[3,2-d]pyrimidine] | 30 to 100 | 250 to 10000 | ≥ 10000 | 100 to 250

The next lines start with the values.

Row | IC50 (USP1-UAF1) [nM] | IC50 [1] [nM] | IC50 [2] [nM] | IC50 (monoubiquitinated PCNA) [nM] | Structure (SMILES)
10 | < 30 | 100 to 250 | ≥ 10000 | 250 to 10000 | COc1ncnc(C2CC2)c1-c1nc(F)c2[nH]cc(Cc3ccc(-c4nc(C(F)(F)F)cn4C)cc3)c2n1 [Compound 110]
11 | < 30 | < 100 | ≥ 10000 | < 100 | COc1ncnc(C2(F)CC2)c1-c1ncc2[nH]cc(Cc3ccc(-c4nc(C(F)(F)F)cn4C)cc3)c2n1 [Compound 87]
12 | 100 to 10000 | 100 to 250 | 250 to 10000 | 100 to 250 | CNCc1[nH]c2cnc(-c3c(OC)ncnc3C3CC3)nc2c1Cc1ccc(-c2nc(C(F)(F)F)cn2C)cc1 [Compound 159, 1-[2-(4-cyclopropyl-6-methoxy-pyrimidin-5-yl)-7-[[4-[1-methyl-4-(trifluoromethyl)imidazol-2-yl]phenyl]methyl]-5H-pyrrolo[3,2-d]pyrimidin-6-yl]-N-methyl-methanamine]
13 | < 30 | < 100 | ≥ 10000 | < 100 | COc1ncnc(C2CC2)c1-c1ncc2[nH]c(C)c(Cc3ccc(-c4nc(C(F)(F)F)cn4C)cc3)c2n1 [Compound 188]
14 | < 30 | < 100 | ≥ 10000 | < 100 | COc1ncnc(C2CC2)c1-c1ncc2[nH]cc(Cc3ccc(-c4nc(C(F)(F)F)cn4C)cc3C)c2n1 [Compound 203, 2-(4-cyclopropyl-6-methoxy-pyrimidin-5-yl)-7-[[2-methyl-4-[1-methyl-4-(trifluoromethyl)imidazol-2-yl]phenyl]methyl]-5H-pyrrolo[3,2-d]pyrimidine]
15 | < 30 | < 100 | 250 to 10000 | < 100 | CCOc1ncnc(C2CC2)c1-c1ncc2[nH]nc(Cc3ccc(-c4nc(C(F)(F)F)cn4C)cc3)c2n1 [Compound 126, 5-(4-cyclopropyl-6-ethoxy-pyrimidin-5-yl)-3-[[4-[1-methyl-4-(trifluoromethyl)imidazol-2-yl]phenyl]methyl]-1H-pyrazolo[4,3-d]pyrimidine]
16 | < 30 | < 100 | ≥ 10000 | < 100 | COc1ncnc(C2CC2(F)F)c1-c1ncc2[nH]cc(Cc3ccc(-c4nc(C(F)(F)F)cn4C)cc3)c2n1 (stereo not shown) [Compound 147, 2-[4-(2,2-difluorocyclopropyl)-6-methoxy-pyrimidin-5-yl]-7-[[4-[1-methyl-4-(trifluoromethyl)imidazol-2-yl]phenyl]methyl]-5H-pyrrolo[3,2-d]pyrimidine]
17 | < 30 | < 100 | ≥ 10000 | < 100 | COc1ncnc(C2CC2)c1-c1ncc2[nH]cc(Cc3ccc(-c4nc(C(F)(F)F)cn4C)cc3)c2n1 [Compound 65, 2-(4-cyclopropyl-6-methoxy-pyrimidin-5-yl)-7-[[4-[1-methyl-4-(trifluoromethyl)imidazol-2-yl]phenyl]methyl]-5H-pyrrolo[3,2-d]pyrimidine]
18 | 100 to 10000 | 100 to 250 | 250 to 10000 | 250 to 10000 | COc1ncnc(C2CC2)c1-c1ncc2[nH]c(CN)c(Cc3ccc(-c4nc(C(F)(F)F)cn4C)cc3)c2n1 [Compound 119]
19 | < 30 | < 100 | ≥ 10000 | < 100 | CC(C)Oc1ncnc(C2CC2)c1-c1ncc2[nH]cc(Cc3ccc(-c4nc(C(F)(F)F)cn4C)cc3)c2n1 [Compound 118, 2-(4-cyclopropyl-6-isopropoxy-pyrimidin-5-yl)-7-[[4-[1-methyl-4-(trifluoromethyl)imidazol-2-yl]phenyl]methyl]-5H-pyrrolo[3,2-d]pyrimidine]
